This passage reports IC50 results from patent US20240158393A1, “PYRIDONE COMPOUNDS AND METHODS OF USE” (Exelixis, Inc., priority 2021, published 2024).

This assay addresses T1, Human Axl (Homo sapiens, UniProt P30530).
T1 construct: Human AXL (residues 464-885)
T1 sequence (P30530 1-894 Q764R): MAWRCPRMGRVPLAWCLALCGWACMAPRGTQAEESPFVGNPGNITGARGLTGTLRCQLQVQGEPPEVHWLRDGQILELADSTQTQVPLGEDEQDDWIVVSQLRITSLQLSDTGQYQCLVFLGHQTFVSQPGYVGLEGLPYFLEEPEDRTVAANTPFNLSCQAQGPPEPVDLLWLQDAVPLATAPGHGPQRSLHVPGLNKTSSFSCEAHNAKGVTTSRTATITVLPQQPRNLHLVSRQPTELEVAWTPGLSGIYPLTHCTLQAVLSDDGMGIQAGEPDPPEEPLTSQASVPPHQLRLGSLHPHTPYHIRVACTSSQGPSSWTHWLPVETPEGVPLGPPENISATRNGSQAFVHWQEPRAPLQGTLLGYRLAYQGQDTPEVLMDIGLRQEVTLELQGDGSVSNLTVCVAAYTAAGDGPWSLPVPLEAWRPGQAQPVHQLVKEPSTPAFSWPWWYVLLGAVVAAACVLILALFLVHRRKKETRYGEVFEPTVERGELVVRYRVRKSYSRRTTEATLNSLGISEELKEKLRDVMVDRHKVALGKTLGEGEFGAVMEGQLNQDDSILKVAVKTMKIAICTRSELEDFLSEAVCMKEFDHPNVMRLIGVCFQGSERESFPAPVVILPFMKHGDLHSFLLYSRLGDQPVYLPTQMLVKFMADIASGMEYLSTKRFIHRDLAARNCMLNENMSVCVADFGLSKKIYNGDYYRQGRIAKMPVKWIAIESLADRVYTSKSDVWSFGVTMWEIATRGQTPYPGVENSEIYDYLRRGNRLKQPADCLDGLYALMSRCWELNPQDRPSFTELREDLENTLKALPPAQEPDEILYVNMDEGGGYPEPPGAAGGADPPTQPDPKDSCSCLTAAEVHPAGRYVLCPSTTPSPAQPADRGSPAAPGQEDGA
The experiment in a line: Human AXL kinase assay (33P radiometric / HTRF KinEase). The format is biochemical. Conditions: protocols of Examples A-1 and/or A-2.
As for `COCCOc1cc2nccc(Oc3ccc(NC(=O)c4cnc(C)c(C5=CCOCC5)c4O)cc3F)c2nc1OC` [Compound 35, 5-(3,6-Dihydro-2H-pyran-4-yl)-N-[3-fluoro-4-[[6-methoxy-7-(2-methoxyethoxy)-1,5-naphthyridin-4-yl]oxy]phenyl]-4-hydroxy-6-methylpyridine-3-carboxamide], the IC50 is at most 100 nM.
For `COc1cc2nccc(Oc3ccc(NC(=O)c4c5n(c(C)c(C6=CCCC6)c4=O)CCOC5)cc3)c2nc1OC` [Compound 99, 7-(Cyclopenten-1-yl)-N-[4-[(6,7-dimethoxy-1,5-naphthyridin-4-yl)oxy]phenyl]-6-methyl-8-oxo-3,4-dihydro-1H-pyrido[2,1-c][1,4]oxazine-9-carboxamide] the value was at most 100 nM; for `COc1cc2nccc(Oc3ccc(NC(=O)c4cnc(C)c(/C=C/C(C)(C)C)c4O)cc3F)c2nc1OC` [Compound 27, N-[4-[(6,7-Dimethoxy-1,5-naphthyridin-4-yl)oxy]-3-fluorophenyl]-5-[(E)-3,3-dimethylbut-1-enyl]-4-hydroxy-6-methylpyridine-3-carboxamide], at most 100 nM; for `COc1cc2nccc(Oc3ccc(NC(=O)c4c(C)n(C)c(C)c(C5CC5)c4=O)cc3)c2nc1OC` [Compound 48, 5-Cyclopropyl-N-[4-[(6,7-dimethoxy-1,5-naphthyridin-4-yl)oxy]phenyl]-1,2,6-trimethyl-4-oxopyridine-3-carboxamide], at most 100 nM.
Compound `COc1cc2nccc(Oc3ccc(NC(=O)c4c(C)nc(C)c(C(=O)N(C)C)c4O)cc3F)c2nc1OC` [Compound 93, 3-N-[4-[(6,7-Dimethoxy-1,5-naphthyridin-4-yl)oxy]-3-fluorophenyl]-4-hydroxy-5-N,5-N,2,6-tetramethylpyridine-3,5-dicarboxamide] displayed an IC50 of at most 100 nM.
In the case of `COc1cc2nccc(Oc3ccc(NC(=O)c4c5n(c(C)c(C6=CCCCC6)c4=O)CCOC5)cc3F)c2nc1OC` [Compound 80, 7-(Cyclohexen-1-yl)-N-[4-[(6,7-dimethoxy-1,5-naphthyridin-4-yl)oxy]-3-fluorophenyl]-6-methyl-8-oxo-3,4-dihydro-1H-pyrido[2,1-c][1,4]oxazine-9-carboxamide] it was at most 100 nM.
For `COc1cc2nccc(Oc3ccc(NC(=O)c4cn(CCF)c(C)c(C5=CCCCC5)c4=O)cc3F)c2nc1OC` [Compound 8, 5-(Cyclohexen-1-yl)-N-[4-[(6,7-dimethoxy-1,5-naphthyridin-4-yl)oxy]-3-fluorophenyl]-1-(2-fluoroethyl)-6-methyl-4-oxopyridine-3-carboxamide] the value was at most 100 nM; for `COc1cc2nccc(Oc3ccc(NC(=O)c4c(C)n(C)c(C)c(C5CC5)c4=O)cc3F)c2nc1OC` [Compound 46, 5-Cyclopropyl-N-[4-[(6,7-dimethoxy-1,5-naphthyridin-4-yl)oxy]-3-fluorophenyl]-1,2,6-trimethyl-4-oxopyridine-3-carboxamide], 100 to 300 nM; for `COc1ccc2nccc(Oc3ccc(NC(=O)c4cnc(C)c(C5=CCCC5)c4O)cc3F)c2n1` [Compound 1-7, 5-(Cyclopenten-1-yl)-N-[3-fluoro-4-[(6-methoxy-1,5-naphthyridin-4-yl)oxy]phenyl]-4-hydroxy-6-methylpyridine-3-carboxamide], at most 100 nM.
For `COc1cc2nccc(Oc3ccc(NC(=O)c4cnc(C)c(/C=C/C5CCCC5)c4O)cc3F)c2nc1OC` [Compound 25, 5-[(E)-2-Cyclopentylethenyl]-N-[4-[(6,7-dimethoxy-1,5-naphthyridin-4-yl)oxy]-3-fluorophenyl]-4-hydroxy-6-methylpyridine-3-carboxamide] the value was at most 100 nM.
Turning to `COc1cc2nccc(Oc3ccc(NC(=O)c4c(C)n(C)c(C)c(/C=C/C(C)(C)C)c4=O)cc3F)c2nc1OC` [Compound 49, N-[4-[(6,7-Dimethoxy-1,5-naphthyridin-4-yl)oxy]-3-fluorophenyl]-5-[(E)-3,3-dimethylbut-1-enyl]-1,2,6-trimethyl-4-oxopyridine-3-carboxamide], the IC50 was at most 100 nM.
For `COc1cc2nccc(Oc3ccc(NC(=O)c4c(C)ccn(C(C)C)c4=O)cc3F)c2nc1OC` [Compound 38, N-[4-[(6,7-Dimethoxy-1,5-naphthyridin-4-yl)oxy]-3-fluorophenyl]-4-methyl-2-oxo-1-propan-2-ylpyridine-3-carboxamide] the value was 100 to 300 nM; for `COc1cc2nccc(Oc3ccc(NC(=O)c4c(C)nc(C)c(C(=O)NC(C)C)c4O)cc3F)c2nc1OC` [Compound 94, 3-N-[4-[(6,7-Dimethoxy-1,5-naphthyridin-4-yl)oxy]-3-fluorophenyl]-4-hydroxy-2,6-dimethyl-5-N-propan-2-ylpyridine-3,5-dicarboxamide], at most 100 nM.
In the case of `COc1cc2nccc(Oc3cc(F)c(NC(=O)c4c(C)n(C)c(C)c(C5CC5)c4=O)cc3F)c2nc1OC` [Compound 47, 5-Cyclopropyl-N-[4-[(6,7-dimethoxy-1,5-naphthyridin-4-yl)oxy]-2,5-difluorophenyl]-1,2,6-trimethyl-4-oxopyridine-3-carboxamide] it was at most 100 nM; in that of `COc1cc2nccc(Oc3ccc(NC(=O)c4cnc(C)c(/C=C/C5CC5)c4O)cc3F)c2nc1OC` [Compound 26, 5-[(E)-2-Cyclopropylethenyl]-N-[4-[(6,7-dimethoxy-1,5-naphthyridin-4-yl)oxy]-3-fluorophenyl]-4-hydroxy-6-methylpyridine-3-carboxamide], at most 100 nM; in that of `COc1cc2nccc(Oc3ccc(NC(=O)c4c(C)c(Br)c(C)n(C5CCCC5)c4=O)cc3F)c2nc1OC` [Compound 22, 5-Bromo-1-cyclopentyl-N-[4-[(6,7-dimethoxy-1,5-naphthyridin-4-yl)oxy]-3-fluorophenyl]-4,6-dimethyl-2-oxopyridine-3-carboxamide], at most 100 nM.
In the case of `COc1cc2nccc(Oc3ccc(NC(=O)c4cnc(C)c(/C=C/CC(C)C)c4O)cc3F)c2cc1OC` [Compound 29, N-[4-(6,7-Dimethoxyquinolin-4-yl)oxy-3-fluorophenyl]-4-hydroxy-6-methyl-5-[(E)-4-methylpent-1-enyl]pyridine-3-carboxamide] it was at most 100 nM.
With `COc1cc2nccc(Oc3ccc(NC(=O)c4c(C)ccn(C(C)C)c4=O)cc3)c2nc1OC` [Compound 39, N-[4-[(6,7-Dimethoxy-1,5-naphthyridin-4-yl)oxy]phenyl]-4-methyl-2-oxo-1-propan-2-ylpyridine-3-carboxamide], the IC50 is over 300 nM.
For `COc1cnc2c(Oc3ccc(NC(=O)c4cnc(C)c(C5=CCOCC5)c4O)cc3F)ccnc2c1` [Compound 1-4, 5-(3,6-Dihydro-2H-pyran-4-yl)-N-[3-fluoro-4-[(7-methoxy-1,5-naphthyridin-4-yl)oxy]phenyl]-4-hydroxy-6-methylpyridine-3-carboxamide] the value was at most 100 nM; for `COc1cc2nccc(Oc3ccc(NC(=O)c4c(C)nc(C)c(C(=O)NC5CC5)c4O)cc3F)c2nc1OC` [Compound 98, 5-N-Cyclopropyl-3-N-[4-[(6,7-dimethoxy-1,5-naphthyridin-4-yl)oxy]-3-fluorophenyl]-4-hydroxy-2,6-dimethylpyridine-3,5-dicarboxamide], at most 100 nM.
As to `COc1cc2nccc(Oc3ccc(NC(=O)c4cnc(C)c(C5=CCCC5)c4O)cc3)c2cc1OC` [Compound 16, 5-(Cyclopenten-1-yl)-N-[4-(6,7-dimethoxyquinolin-4-yl)oxyphenyl]-4-hydroxy-6-methylpyridine-3-carboxamide], the IC50 was at most 100 nM.
For `COc1cnc2c(Oc3ccc(NC(=O)c4c(C)nc(C)c(C(C)C)c4O)cc3F)ccnc2c1` [Compound 32, N-[3-Fluoro-4-[(7-methoxy-1,5-naphthyridin-4-yl)oxy]phenyl]-4-hydroxy-2,6-dimethyl-5-propan-2-ylpyridine-3-carboxamide] the value was at most 100 nM; for `COCCOc1cc2nccc(Oc3cc(F)c(NC(=O)c4c(C)n(C)c(C)c(C#N)c4=O)cc3F)c2nc1OC` [Compound 83, 5-Cyano-N-[2,5-difluoro-4-[[6-methoxy-7-(2-methoxyethoxy)-1,5-naphthyridin-4-yl]oxy]phenyl]-1,2,6-trimethyl-4-oxopyridine-3-carboxamide], 100 to 300 nM; for `COc1cc2nccc(Oc3ccc(NC(=O)c4c(C)n(C)c(C)c(C(=O)O)c4=O)cc3F)c2nc1OC` [Compound 92, 5-[[4-[(6,7-Dimethoxy-1,5-naphthyridin-4-yl)oxy]-3-fluorophenyl]carbamoyl]-1,2,6-trimethyl-4-oxopyridine-3-carboxylic acid], over 300 nM.
Regarding `COc1cnc2c(Oc3ccc(NC(=O)c4c(C)n(C)c(C)c(C#N)c4=O)cc3F)ccnc2c1` [Compound 81, 5-Cyano-N-[3-fluoro-4-[(7-methoxy-1,5-naphthyridin-4-yl)oxy]phenyl]-1,2,6-trimethyl-4-oxopyridine-3-carboxamide], the IC50 is over 300 nM.
